Data reported in patent US6353006B1, “Substituted 2-arylimino heterocycles and compositions containing them, for use as progesterone receptor binding agents” (Bayer Corporation, priority 1999, dated 2002).

First: CCc1cc(C(=O)O)ccc1N=C1SCC2(CCCC2)N1C1CCCC1 [Entry 253, 2-(4-carboxy-2-ethylphenylimino)-1-cyclopentyl-3-thia-1-azaspiro[4.4]nonane]
Second: CCc1cc(C(C)=O)ccc1N=C1SCC2(CCCC2)N1C1CCCC1 [Entry 255, 2-(4-acetyl-2-ethylphenylimino)-1-cyclopentyl-3-thia-1-azaspiro[4.4]nonane]
The melting point of the first is higher: 208 to 209 °C for the first, 114 to 115 °C for the second.

First: CCc1cc(/C=C/[N+](=O)[O-])ccc1N=C1SCC2(CCCC2)N1C1CCCC1 [Entry 269, 2-(2-ethyl-4-((1E)-2-nitrovinyl)phenylimino)-1-cyclopentyl-3-thia-1-azaspiro[4.4]nonane]
Second: CCc1cc(C=C(C#N)C#N)ccc1N=C1SCC2(CCCC2)N1C1CCCC1 [Entry 271, 2-(2-ethyl-4-(2,2-dicyanovinyl)phenylimino)-1-cyclopentyl-3-thia-1-azaspiro[4.4]nonane]
The melting point of the first is higher: 141 to 142 °C for the first, 135 to 136 °C for the second.

Compared with `Cc1cc([N+](=O)[O-])ccc1N=C1SC(=O)CN1CC(C)C` [Entry 310, 2-(2-methyl-4-nitrophenylimino)-3-isobutyl-1,3-thiazolidin-5-one], `CCc1cc(C#N)ccc1N=C1OCC(C)(C)N1C1CCCC1` [Entry 319, 2-(4-cyano-2-ethylphenylimino)-3-cyclopentyl-4,4-dimethyl-1,3-oxazolidine] is lower in melting point: 152 °C for the first, 112 to 114 °C for the second.
